Measured values published in US20090075976A1, “Association between an anti-atherothrombotic and an angiotensin-converting enzyme inhibitor” (LES LABORATOIRES SERVIER, priority 2007, published 2009).
Where a name gives a salt, the structure may show the parent alone.

Legend:
[1] = tested on: human E-selectin promoter; test: E-selectin promoter activity (luciferase reporter) in TNF-α-induced HUVEC cells; type: cell-based; details: for Activity in cpm %/Control MEAN ± SDM: TNF-α-induced (100 U/ml); for effect on expression of the E-selectin gene: compound alone, at the concentrations tested (up to 100 μM), TNF-α
Protocol: The study is carried out on human endothelial cells HUVEC (Human Umbilical Vein Endothelial Cells, Clonetics Co). The cells are cultured in an EBM2 medium (Endothelial Basal Medium, Clonetics Co) supplemented with 2% FCS (Fœtal Calf Serum) and EGM2 (Endothelial Growth Medium, Clonetics Co).
An 850 bp fragment, corresponding to the human E-selectin promoter, extending from the nucleotides at positions −800 to +50 (accession no. M64485; Tamaru et al., E-selectin gene expression is induced synergistically with the coexistence of activated classic protein kinase C and signals elicited by interleukin-1β but not tumor necrosis factor-α; 1999, J. Biol. Chem, 274, 3753-3763), was amplified by PCR and sub-cloned. In a final reaction volume of 100 μl, 5 units of native Pyrococcus furiosus (Pfu) DNA polymerase (Stratagene) were placed in the presence of 1 μg of human genomic DNA (Clontech), 200 μM of dNTP (deoxynucleotide triphosphate) (Clontech) and 200 ng of primers in a medium containing the buffer specific to the enzyme. The set of primers used is as follows: […]
The PGL3/E-selectin plasmid is transfected into HUVEC cells before the fourth passage. Transfection is carried out in plates having cells at 50% confluence, depositing Lipofectin® (Invitrogen) and 3 μg of PGL3/E-selectin plasmid in each of the wells. The Lipofectin® (6 μg/ml) is previously activated for 30 minutes in an OPTI-MEM medium (GIBCO™) and then brought into contact for 15 minutes with the plasmids previously diluted with the medium. The cells are incubated for 4 hours at 37° C. in an atmosphere containing 5% CO2 and […]. The transfection medium is withdrawn and replaced overnight by an enriched culture medium in order to stabilise the cells.
Expression of the reporter genes is induced over 4 hours in an M199 medium without serum (GIBCO™). The cells are scratched and lysed in a lysis buffer (Dual-Luciferase® kit, Promega) and then held at −20° C.
The induction phase is 4 hours for the HUVEC cells in the presence of 100 U/ml of Tumour Necrosis Factor-α (TNF-α). During that induction phase, there are added different concentrations of, on the one hand: • perindoprilate (0 to 100 µM), terutroban sodium salt (0 to 100 μM), or terutroban sodium salt (30 μM)+different concentrations of perindoprilate (10, 30 and 100 μM) (Table 1) and, on the other hand: • ramiprilate (0 to 100 μM), terutroban sodium salt (0 to 100 μM), or terutroban sodium salt (10 μM)+different concentrations of ramiprilate (30 and 100 μM) (Table 2).
The E-selectin promoter activity is determined by quantification of the luciferase activity produced (Dual-Luciferase® kit, Promega). A solution of luciferin, the substrate of the firefly luciferase, is added to each well. […] The plate is incubated for 10 minutes in the dark because the luciferase activity is light-sensitive, and then a luminometer reading is started in order to quantify the photons emitted (Wallac, Perkin Elmer), the result obtained being the average cpm (counts per minute) over a period of 5 seconds.
(§1) The activity of the E-selectin promoter is measured under control conditions and in the presence of products in the induced state.
as §1

[2] = tested on: aortic VCAM-1; test: Expression of aortic VCAM-1 in diabetic ApoE−/− mice (real-time PCR); type: in vivo; details: 13 weeks
Protocol: Four groups of 9 mice deficient in apolipoprotein E (ApoE^−/−, spontaneously developing atheroma plaques in their aortas) were used in this study. At the age of 8 weeks, the mice are made diabetic by 5 intraperitoneal injections of 70 mg/kg of streptozotocin over 5 days. At the ninth week, the animals are divided into four groups: an untreated control group, a group treated with terutroban (compound A) sodium salt (1 mg/kg/day in the food), a group treated with perindopril (compound B) tert-butylamine salt (0.1 mg/kg/day in the drinking water), and a group treated with the association of terutroban (compound A) sodium salt (1 mg/kg/day in the food) and perindopril (compound B) tert-butylamine salt (0.1 mg/kg/day in the drinking water). For the expression of aortic VCAM-1, the mice are treated for 13 weeks and then sacrificed. The aortas and the right-side kidneys are removed, dissected and frozen in liquid nitrogen. The tissues are cryo-ground and total RNA is extracted using the RNeasy® micro kit (Qiagen). […] Expression of aortic VCAM-1 and expression of renal fibronectin are quantified by real-time PCR and normalised with respect to 3 reference genes: β-actin, hypoxanthine-guanine phosphoribosyl transferase (HPRT) and glyceraldehyde phosphate dehydrogenase (GAPDH). […]

[3] = tested on: CD rats; test: Arterial pressure in the anaesthetised rat; type: in vivo; details: recorded 1 hour after treatment, controls 131±7 mmHg
Protocol: After anaesthesia using pentobarbital (50 mg/kg IP), the animal is placed on a thermostatically controlled blanket. The carotid artery is exposed and a catheter is introduced in order to monitor the arterial pressure with the aid of a Gould sensor connected to AcqKnowledge software. […] Some animals are treated with terutroban (compound A) in the form of the sodium salt at a dose of 0.1 mg/kg, others with perindopril (compound B) in the form of the tert-butylamine salt at a dose of 0.3 mg/kg, and others with terutroban (compound A) in the form of the sodium salt at 0.1 mg/kg and perindopril (compound B) in the form of the tert-butylamine salt at 0.3 mg/kg.

[4] = tested on: CD rats; test: Arterial thrombosis in the rat (FeCl3-induced, aorta); type: in vivo
Protocol: The thrombosis technique used is that of Tanaka and co-workers (Eur. J. Pharmacol., 2008; 401, 413-18). CD rats (350-375 g) are anaesthetised using pentobarbital 50 mg/kg IP and are placed on a thermostatically controlled blanket. After laparotomy, the aorta is exposed. […] Some animals are treated with terutroban (compound A) in the form of the sodium salt at a dose of 0.1 mg/kg, others with perindopril (compound B) in the form of the tert-butylamine salt at a dose of 1 mg/kg, and others with terutroban in the form of the sodium salt (compound A) at a dose of 0.1 mg/kg and perindopril (compound B) in the form of the tert-butylamine salt at 1 mg/kg.

[5] = tested on: renal fibronectin; test: Expression of renal fibronectin in diabetic ApoE−/− mice (real-time PCR); type: in vivo; details: 6 weeks
Protocol: Four groups of 9 mice deficient in apolipoprotein E (ApoE^−/−, spontaneously developing atheroma plaques in their aortas) were used in this study. At the age of 8 weeks, the mice are made diabetic by 5 intraperitoneal injections of 70 mg/kg of streptozotocin over 5 days. At the ninth week, the animals are divided into four groups: an untreated control group, a group treated with terutroban (compound A) sodium salt (1 mg/kg/day in the food), a group treated with perindopril (compound B) tert-butylamine salt (0.1 mg/kg/day in the drinking water), and a group treated with the association of terutroban (compound A) sodium salt (1 mg/kg/day in the food) and perindopril (compound B) tert-butylamine salt (0.1 mg/kg/day in the drinking water). For the expression of renal fibronectin, the mice are treated for 6 weeks and then sacrificed after anaesthesia using isoflurane. For the expression of aortic VCAM-1, the mice are treated for 13 weeks and then sacrificed. The aortas and the right-side kidneys are removed, dissected and frozen in liquid nitrogen. […] Expression of aortic VCAM-1 and expression of renal fibronectin are quantified by real-time PCR and normalised with respect to 3 reference genes: β-actin, hypoxanthine-guanine phosphoribosyl transferase (HPRT) and glyceraldehyde phosphate dehydrogenase (GAPDH). […]

[6] = tested on: VCAM-1; details: diabetic atheromatous Apo E−/− mice; cited from earlier work
[7] = 0.1 mg/kg/day in the drinking water

SMILES: C[C@H](N[C@@H](CCc1ccccc1)C(=O)O)C(=O)N1[C@H](C(=O)O)C[C@@H]2CCC[C@@H]21 [Compound C, active metabolite, ramiprilate]
- Activity in cpm %/Control MEAN ± SDM ([1]; compound alone 30 μM): 111.1 ± 17.2%
- Activity in cpm %/Control MEAN ± SDM ([1]; compound alone 100 μM): 114.6 ± 38.9%
- effect on expression of the E-selectin gene [1]: no effect

SMILES: CCC[C@H](N[C@@H](C)C(=O)N1[C@H](C(=O)O)C[C@@H]2CCCC[C@@H]21)C(=O)O [Compound B, active metabolite, perindoprilate]
- Activity in cpm %/Control MEAN ± SDM ([1]; compound alone 10 μM): 99.5 ± 7.8%
- Activity in cpm %/Control MEAN ± SDM ([1]; compound alone 30 μM): 100.3 ± 9.2%
- Activity in cpm %/Control MEAN ± SDM ([1]; compound alone 100 μM): 82.8 ± 11.5%
- effect on expression of the E-selectin gene [1]: no effect

SMILES: CCC[C@H](N[C@@H](C)C(=O)N1[C@H](C(=O)O)C[C@@H]2CCCC[C@@H]21)C(=O)OCC [perindopril]
- residual expression of the aortic VCAM-1 gene versus 100% without treatment [2, 7]: 76±21%
- arterial pressure ([3]; 0.3 mg/kg): 120±9 mmHg
- weight of clot ([4]; 1 mg/kg, controls 15.6±0.7 mg): 15.2 ± 1.1 mg
- expression of the renal fibronectin gene versus 100% without treatment [5, 7]: 86±9.9%

SMILES: Cc1ccc2c(c1CCC(=O)O)CC[C@@H](NS(=O)(=O)c1ccc(Cl)cc1)C2 [Compound A, sodium salt, 3-[(6R)-6-[[(4-chlorophenyl)sulphonyl]amino]-2-methyl-5,6,7,8-tetrahydronaphth-1-yl]propanoic acid]
- residual expression of the aortic VCAM-1 gene versus 100% without treatment ([2]; 1 mg/kg/day in the food): 88±22%
- endothelial expression of the adhesion molecule VCAM-1 [6]: significantly reduced
- arterial pressure ([3]; 0.1 mg/kg): 126±7 mmHg
- weight of clot ([4]; 0.1 mg/kg, controls 17.1±1.3 mg): 16.8 ± 1.3 mg
- Activity in cpm %/Control MEAN ± SDM ([1]; compound alone 10 μM): 105.8 ± 7.9%
- Activity in cpm %/Control MEAN ± SDM ([1]; compound alone 30 μM): 99.5 ± 9.1%
- Activity in cpm %/Control MEAN ± SDM ([1]; compound alone 100 μM): 88.8 ± 8.9%
- effect on expression of the E-selectin gene [1]: no effect
- expression of the renal fibronectin gene versus 100% without treatment ([5]; 1 mg/kg/day in the food): 69±16%
